# Marks after values point to notes of the source that are not given here.
# How the values were obtained:
# [1] = system: panel of cytochrome P450 isoforms; assay: in vitro
# [2] = system: Huh7; settings: human
# [3] = system: P. falciparum 3D7; assay: P. falciparum 3D7 proliferation assay; type: cell-based, Plasmodium falciparum; settings: Plasmodium falciparum, 3D7; imidazolopiperazine hits; mean of two experiments; read-out: P. falciparum 3D7 EC50
# Text: (§1) We screened both our in-house compound collection (~2.3M compounds) and natural products library (12,000 compounds) using a cell based Plasmodium falciparum proliferation assay. This screen provided data on a large number of chemically diverse anti-malarial compounds. These nearly 5700 hits have been deposited into the public EBI database by GNF/Novartis. A number of these hits originated from kinase-directed libraries and many of which are pan-kinase inhibitors. De-convoluting and eliminating inherent kinase activity with many of these scaffolds while maintaining cellular potency was the first step in the hit-to-lead phase for these particular chemotypes. What follows is a summary of the chemical optimization of some kinase-like and non-kinase scaffolds which came out of the whole-cell screening effort.
# [4] = target: hERG (Homo sapiens, UniProt Q12809); assay: hERG binding assay
# [5] = system: P. falciparum W2; assay: P. falciparum W2 proliferation assay; type: cell-based; settings: Plasmodium falciparum, imidazolopiperazine hits, mean of two experiments
# Text: as §1
# [6] = aqueous solubility; type: physicochemical; settings: aqueous medium, pH 6.8, aqueous buffer
# [7] = system: Plasmodium berghei; assay: P. berghei murine model; type: in vivo
# [8] = target: QM-PfDHFR (quadruple mutant PfDHFR); set-up: method as in PMID 20350951; settings: cited from earlier work
# [9] = target: hDHFR (human DHFR); set-up: method as in PMID 20350951; settings: cited from earlier work
# [10] = target: WT-PfDHFR (wild type PfDHFR); set-up: method as in PMID 20350951; settings: cited from earlier work
# [11] = system: wild type P. falciparum; set-up: method as in PMID 20350951; settings: read-out: EC50 on wild type P. falciparum in vitro; cited from earlier work
# [12] = 2-week rat toxicology study; type: in vivo
# Chain of hERG (Q12809 whole entry): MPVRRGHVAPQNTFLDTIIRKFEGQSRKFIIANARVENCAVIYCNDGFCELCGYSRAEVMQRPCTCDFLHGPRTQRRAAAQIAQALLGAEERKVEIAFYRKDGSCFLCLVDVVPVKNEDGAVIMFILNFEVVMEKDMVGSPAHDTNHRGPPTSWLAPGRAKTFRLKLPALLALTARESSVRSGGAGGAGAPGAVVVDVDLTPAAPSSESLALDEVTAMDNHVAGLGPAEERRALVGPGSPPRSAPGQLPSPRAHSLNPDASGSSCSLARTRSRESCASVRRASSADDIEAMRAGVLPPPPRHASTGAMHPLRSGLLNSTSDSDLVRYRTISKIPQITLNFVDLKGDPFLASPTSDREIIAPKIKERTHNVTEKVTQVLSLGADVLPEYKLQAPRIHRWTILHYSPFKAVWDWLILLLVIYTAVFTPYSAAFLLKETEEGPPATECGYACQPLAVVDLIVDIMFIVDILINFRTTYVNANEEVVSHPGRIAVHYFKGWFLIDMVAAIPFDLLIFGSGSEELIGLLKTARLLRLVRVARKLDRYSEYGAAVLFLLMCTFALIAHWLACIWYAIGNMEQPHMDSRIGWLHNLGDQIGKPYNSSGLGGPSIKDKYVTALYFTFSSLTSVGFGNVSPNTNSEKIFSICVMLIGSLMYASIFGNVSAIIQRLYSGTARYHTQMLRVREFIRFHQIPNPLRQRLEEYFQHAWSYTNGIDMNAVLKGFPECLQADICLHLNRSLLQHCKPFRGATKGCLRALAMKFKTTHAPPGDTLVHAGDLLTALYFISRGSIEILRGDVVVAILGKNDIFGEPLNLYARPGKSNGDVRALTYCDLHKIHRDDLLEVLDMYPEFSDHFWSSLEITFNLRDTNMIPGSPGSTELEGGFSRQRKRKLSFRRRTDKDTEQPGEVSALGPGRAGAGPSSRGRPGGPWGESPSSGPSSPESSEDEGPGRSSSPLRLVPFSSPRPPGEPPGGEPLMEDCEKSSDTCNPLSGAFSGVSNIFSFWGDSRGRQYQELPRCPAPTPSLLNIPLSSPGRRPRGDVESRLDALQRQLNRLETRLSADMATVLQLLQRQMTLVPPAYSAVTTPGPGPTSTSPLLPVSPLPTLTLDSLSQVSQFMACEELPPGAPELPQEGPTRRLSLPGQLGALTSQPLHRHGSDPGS
compound,measurement,setting,value
NCC(=O)N1CCn2c(nc(-c3ccccc3)c2Nc2ccc3c(c2)OCO3)C1 [Compound 18a],IC50,[1],> 10000 nM
same,Cytotoxicity (µM) Huh7,[2],> 10 µM
same,EC50,[3],63 nM
same,IC50,[4],19000 nM
same,EC50,[5],97 nM
same,solubility,[6],> 175 µM
"COc1ccc(OC)c(CNc2ccc3nc(N)nc(N)c3c2Cl)c1 [QN254, 5-Chloro-N'6'-(2 5 di-methoxy-benzyl)-quinazoline-2 4 6-triamine]",Cure Rate (%),[7]; 3 x 30 (mg/kg),80%
same,Toxicity Rate (%),[7]; 3 x 30 (mg/kg),0%
same,Average Survival,"[7]; 3 x 30 (mg/kg), control survival 5.6 to 6.2 days",28.4 days
same,Cure Rate (%),[7]; 3 x 60 (mg/kg),60%
same,Parasitemia Reduction (%),[7]; 3 x 60 (mg/kg),> 99.99%
same,Toxicity Rate (%),"[7]; 3 x 60 (mg/kg), mice died around day 10 and were parasite free",40^b %
same,Cure Rate (%),[7]; 3 x 100 (mg/kg),20%
same,Parasitemia Reduction (%),[7]; 3 x 100 (mg/kg),> 99.99%
same,Toxicity Rate (%),"[7]; 3 x 100 (mg/kg), mice died around day 10 and were parasite free",80^b %
same,Parasitemia Reduction (%),"[7]; dosing regimen 3 x 30 (mg/kg), oral, compared to untreated controls",> 99.99%
same,Ki,[8],0.58 ± 0.06 nM
same,Ki,[9],10.2 ± 0.6 nM
same,Ki,[10],0.39 ± 0.05 nM
same,EC50,[11],9 nM
same,histopathological analysis,[12]; 2-week toxicology study,significant gastrointestinal and bone marrow toxicity
same,tolerability,"[12]; 2 weeks, repeated oral administration of greater than 50 mg/kg",not tolerated
